Results published in the supplement of paper PMC12370961.

Legend:
Assay in all cases: differential drug sensitivity score (dDSS) relative to sarcoma reference cohort mean DSS (DSS units (0-100 scale difference)); higher = more selective sensitivity than reference sarcomas
Conditions in all cases: exposure time: 72 h; concentration range: 10-10000 nM
ES-ZH009 = system: ES-ZH009 (patient-derived Ewing sarcoma tumoroid)
Method: (§1)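 Drug response profiling of patient-derived Ewing sarcoma and CIC::DUX4 sarcoma tumoroid models (or cells tested directly after isolation from the tumor, 'direct'). The DSS is the normalised AUC (0-100); dDSS is the sample DSS minus the mean DSS of a 34-sarcoma reference cohort profiled in the same lab.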

CDS-ZH003 = system: CDS-ZH003 (patient-derived CIC-DUX4 sarcoma tumoroid)
Method: as §1

ES-ZH002 = system: ES-ZH002 (patient-derived Ewing sarcoma tumoroid)
Method: as §1

ES-ZH001 = system: ES-ZH001 (patient-derived Ewing sarcoma tumoroid)
Method: as §1

CDS-ZH002 direct = system: CDS-ZH002 direct (CIC-DUX4 sarcoma cells right after isolation)
Method: as §1

CDS-ZH001-2 = system: CDS-ZH001-2 (patient-derived CIC-DUX4 sarcoma tumoroid)
Method: as §1

CDS-ZH001 = system: CDS-ZH001 (patient-derived CIC-DUX4 sarcoma tumoroid)
Method: as §1

ES-ZH016 = system: ES-ZH016 (patient-derived Ewing sarcoma tumoroid)
Method: as §1

ES-ZH004 = system: ES-ZH004 (patient-derived Ewing sarcoma tumoroid)
Method: as §1

ES-ZH016 direct = system: ES-ZH016 direct (Ewing sarcoma cells right after isolation)
Method: as §1

CDS-ZH002 = system: CDS-ZH002 (patient-derived CIC-DUX4 sarcoma tumoroid)
Method: as §1

ES-ZH008 = system: ES-ZH008 (patient-derived Ewing sarcoma tumoroid)
Method: as §1

ES-ZH007 = system: ES-ZH007 (patient-derived Ewing sarcoma tumoroid)
Method: as §1

Row | SMILES | differential drug sensitivity score (ES-ZH009) | differential drug sensitivity score (CDS-ZH003) | differential drug sensitivity score (ES-ZH002) | differential drug sensitivity score (ES-ZH001) | differential drug sensitivity score (CDS-ZH002 direct) | differential drug sensitivity score (CDS-ZH001-2) | differential drug sensitivity score (CDS-ZH001) | differential drug sensitivity score (ES-ZH016) | differential drug sensitivity score (ES-ZH004) | differential drug sensitivity score (ES-ZH016 direct) | differential drug sensitivity score (CDS-ZH002) | differential drug sensitivity score (ES-ZH008) | differential drug sensitivity score (ES-ZH007)
1 | C[C@@H]1CN(C(=O)c2ccc(NC(=O)c3cc(O[C@H](C)c4c(Cl)ccc(F)c4Cl)c(N)nn3)cc2)C[C@H](C)N1 [Ensartinib] | -2.1 | -1.2 | 15.2 | 4.7 | -1.9 | 5.2 | 5 | 3.9 | 4.3 | 3.7 | -0.8 | 13.9 | 4.2
2 | COc1cccc2c1C(=O)c1c(O)c3c(c(O)c1C2=O)C[C@@](O)(C(=O)CO)C[C@@H]3O[C@H]1C[C@H](N)[C@H](O)[C@H](C)O1 [Doxorubicin] | 15.7 | 5 | 20.9 | 6.8 | 3.1 | 10.6 | 3.1 | 12.8 | -3.3 | 11 | 4.7 | -0.7 | -10.2
3 | C[C@H](NC(=O)CCC(F)(F)F)C(=O)N[C@@H]1C(=O)N(CCO)c2ncccc2-c2ccccc21 [Crenigacestat] | -2.3 | -2.3 | 13.6 | 5.8 | -0.6 | 0.3 | -2.3 | -2.3 | 5.8 | 1 | -0.2 | 6.4 | -2.3
4 | CCN1CCN(Cc2ccc(-c3cc4c(N[C@H](C)c5ccccc5)ncnc4[nH]3)cc2)CC1 [AEE788] | 1.6 | 5.8 | 0.3 | 3.6 | -1.2 | -0.2 | -0.7 | -4.1 | -1.1 | -6.1 | -3 | -0.1 | -4
5 | CO/N=C1\C[C@]2(C[C@@H]3C[C@@H](C/C=C(\C)C[C@@H](C)/C=C/C=C4\CO[C@@H]5[C@H](O)C(C)=C[C@@H](C(=O)O3)[C@]45O)O2)O[C@H](/C(C)=C/C(C)C)[C@H]1C [Moxidectin] | 3.8 | -4.8 | 3.7 | 0.2 | 0 | -5 | 0.1 | -0.4 | 0.9 | 0 | -3.7 | -1.8 | -0.2
6 | CCc1cc2c(cc1N1CCC(N3CCOCC3)CC1)C(C)(C)c1[nH]c3cc(C#N)ccc3c1C2=O [Alectinib] | -1.3 | 2.4 | 4.6 | -0.5 | -0.8 | -1.3 | -1.2 | -1.3 | -1.3 | -1.3 | -1.3 | -0.7 | -1.3
7 | COc1cc([C@@H]2c3cc4c(cc3[C@@H](O[C@@H]3O[C@@H]5CO[C@@H](C)O[C@H]5[C@H](O)[C@H]3O)[C@H]3COC(=O)[C@H]23)OCO4)cc(OC)c1O [Etoposide] | 8.6 | -6.8 | 25.5 | 10 | -7.3 | 3.8 | -1.6 | 8.7 | 11.7 | 7.2 | -4.3 | 13.6 | 6.1
8 | CN(C)Cc1c(C(=O)NCCOc2ccc(C(=O)NO)cc2)oc2ccccc12 [Abexinostat] | 10.5 | -11.2 | 3.9 | 5.3 | -0.7 | 4.2 | -3.5 | 4.3 | 3.2 | 2.4 | 0.1 | 9.6 | 4.9
9 | CC1(C)CCC(c2ccc(Cl)cc2)=C(CN2CCN(c3ccc(C(=O)NS(=O)(=O)c4ccc(N[C@H](CCN5CCOCC5)CSc5ccccc5)c(S(=O)(=O)C(F)(F)F)c4)cc3)CC2)C1 [Navitoclax] | 4.9 | 0.6 | 17.3 | 6.7 | -5.8 | 2.5 | -2.9 | -6.4 | -3.4 | 13.7 | -7.6 | 10.4 | -7.4
10 | CCC1=C[C@@H]2CN(C1)Cc1c([nH]c3ccccc13)[C@@](C(=O)OC)(c1cc3c(cc1OC)N(C)[C@H]1[C@@](O)(C(=O)OC)[C@H](OC(C)=O)[C@]4(CC)C=CCN5CC[C@]31[C@@H]54)C2 [Vinorelbine] | 24.7 | 0.2 | 22.8 | 23.7 | 4.3 | 9.1 | 8.7 | 20.4 | 15.4 | 12.2 | 6.9 | 14.7 | 15.8
11 | NS(=O)(=O)NCCNc1nonc1/C(=N/O)Nc1ccc(F)c(Br)c1 [Epacadostat] | 0 | 0.6 | -0.2 | -0.7 | -0.7 | -0.7 | -0.7 | 0.1 | 0 | -0.5 | -0.7 | 5.6 | -0.7
12 | CN1CCN(c2ccc3nc(-c4c(N)c5c(F)cccc5[nH]c4=O)[nH]c3c2)CC1 [Dovitinib] | 1.5 | -4 | 6.3 | 0.4 | -1.6 | 1.1 | -2.9 | -3.2 | -1.9 | 7.6 | -4 | 1.7 | -3.8
